The values that follow come from EP2197883B1, “Catecholamine derivative useful for the treatment of parkinson's disease” (H. Lundbeck A/S, priority 2007, dated 2009).

SMILES strings stand for the structures.

The conditions of series [1]: man, after oral dosing; cited from earlier work.
Another series deals with PD patients. Conditions: intravenous (IV); cited from earlier work.
The test system of series [2] is mouse model of severe dopamine depletion. The series can be described thus: Superiority model. It counts as in vivo. Conditions: mice. From the text:
Both Apomorphine and L-DOPA stimulate D1 and D2-like dopamine receptors.

Turning to `CCCc1cc2c(s1)CN[C@@H]1CCc3cc(OC(C)=O)c(OC(C)=O)cc3[C@@H]21` [Adrogolide], the oral bioavailability in series [1] is reported as ~4%. Moreover, the antiparkinson efficacy result in the series on PD patients is “comparable to that of L-DOPA”.

As to `CN1CCc2cccc3c2[C@H]1Cc1ccc(O)c(O)c1-3` [Apomorphine], the “reversal of motility deficits / restoration of locomotion” value in series [2] is recorded as “able to reverse motility deficits”.

For the compound `N[C@@H](Cc1ccc(O)c(O)c1)C(=O)O` [L-DOPA, (levo)-3,4-dihydroxy phenylalanine], the “reversal of motility deficits / restoration of locomotion” value in series [2] is recorded as “able to reverse motility deficits”.
